The source made the active and inactive calls. No cut-off for these calls is given here.
Experiments:
[1] = target: T1, Type-1 angiotensin II receptor (Homo sapiens) (UniProt P30556); assay: (§1) Displacement of [125I-Sar1-Ile8]-Ang2 from human angiotensin 2 receptor type 1 receptor expressed in HEK293 cells after 1 hr by gamma counting analysis; type: cell-based
T1 sequence (whole entry): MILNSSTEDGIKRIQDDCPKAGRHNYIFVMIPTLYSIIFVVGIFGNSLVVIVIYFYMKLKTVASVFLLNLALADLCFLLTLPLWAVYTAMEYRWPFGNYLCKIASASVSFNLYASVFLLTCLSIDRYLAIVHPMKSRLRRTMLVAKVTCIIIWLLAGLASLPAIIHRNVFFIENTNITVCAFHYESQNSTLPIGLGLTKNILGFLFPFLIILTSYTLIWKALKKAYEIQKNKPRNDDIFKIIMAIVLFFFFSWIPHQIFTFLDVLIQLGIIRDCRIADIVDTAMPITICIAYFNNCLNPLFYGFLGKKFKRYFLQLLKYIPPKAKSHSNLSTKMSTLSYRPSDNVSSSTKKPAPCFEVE

[2] = target: T2, Type-1 angiotensin II receptor (Homo sapiens, UniProt P30556); assay: as §1; type: cell-based
T2 sequence (P30556 whole entry): T1 sequence (whole entry)

[3] = tested on: NIH3T3; assay: Cytotoxicity against mouse NIH/3T3 cells up to 30 uM after 48 hrs by WST-1 assay; type: cell-based; conditions: nih3t3, 48 h
[4] = tested on: NCI-H358; assay: Cytotoxicity against human NCI-H358 cells at 1 to 10 uM after 48 hrs measured during wound-healing assay; type: cell-based; conditions: nci-h358, 48 h
[5] = tested on: A549; assay: Cytotoxicity against human A549 cells up to 30 uM after 48 hrs by WST-1 assay; type: cell-based; conditions: a549, 48 h
[6] = tested on: NCI-H358; assay: Cytotoxicity against human NCI-H358 cells up to 30 uM after 48 hrs by WST-1 assay; type: cell-based; conditions: nci-h358, 48 h
[7] = tested on: NIH3T3; assay: Cytotoxicity against mouse NIH/3T3 cells at 1 to 10 uM after 72 hrs measured during wound-healing assay; type: cell-based; conditions: nih3t3, 72 h
[8] = tested on: A549; assay: Cytotoxicity against human A549 cells at 1 to 10 uM after 72 hrs measured during wound-healing assay; type: cell-based; conditions: a549, 72 h
[9] = tested on: NIH3T3; assay: Antimigratory activity against mouse NIH/3T3 cells at 10 uM after 72 hrs by wound-healing assay; type: ADME, cell-based; conditions: nih3t3, 72 h
[10] = tested on: A549; assay: Antimigratory activity against human A549 cells at 10 uM after 72 hrs by wound-healing assay; type: functional, cell-based
[11] = tested on: NCI-H358; assay: Antimigratory activity against human NCI-H358 cells at 10 uM after 48 hrs by wound-healing assay; type: functional, cell-based
[12] = tested on: HUVEC; assay: Cell cycle arrest in human HUVEC cells assessed as decrease in cells at G0/G1 phase after 24 hrs by propidium iodide staining-based flow cytometric analysis; type: ADME
[13] = tested on: HUVEC; assay: Cell cycle arrest in human HUVEC cells assessed as increase in cells at G2/M phase after 24 hrs by propidium iodide staining-based flow cytometric analysis; type: ADME
[14] = tested on: MCF7; assay: Cell cycle arrest in human MCF7 cells assessed as decrease in cells at G0/G1 phase after 48 hrs by propidium iodide staining-based flow cytometric analysis; type: functional
[15] = tested on: MCF7; assay: Cell cycle arrest in human MCF7 cells assessed as increase in cells at G2/M phase after 48 hrs by propidium iodide staining-based flow cytometric analysis; type: functional
[16] = tested on: HUVEC; assay: Cell cycle arrest in human HUVEC cells assessed as accumulation of cells with 8N DNA content at 100 uM after 1 to 2 days by propidium iodide staining-based flow cytometric analysis relative to control; type: ADME
[17] = tested on: MCF7; assay: Cell cycle arrest in human MCF7 cells assessed as accumulation of cells with 8N DNA content at 100 uM after 1 to 2 days by propidium iodide staining-based flow cytometric analysis relative to control; type: functional
[18] = tested on: HUVEC; assay: Cell cycle arrest in human HUVEC cells assessed as cell detachment at 50 to 100 uM after 24 hrs by propidium iodide staining-based flow cytometric analysis; type: ADME
[19] = tested on: HUVEC; assay: Cell cycle arrest in human HUVEC cells assessed as cell death at 50 to 100 uM after 24 hrs by propidium iodide staining-based flow cytometric analysis; type: ADME
[20] = tested on: HUVEC; assay: Cell cycle arrest in human HUVEC cells assessed as accumulation of cells at subG1 phase at 50 to 100 uM after 24 hrs by propidium iodide staining-based flow cytometric analysis; type: ADME
[21] = tested on: MCF7; assay: Cell cycle arrest in human MCF7 cells assessed as cell detachment at 50 to 100 uM after 24 hrs by propidium iodide staining-based flow cytometric analysis; type: functional
[22] = tested on: MCF7; assay: Cell cycle arrest in human MCF7 cells assessed as cell death at 50 to 100 uM after 24 hrs by propidium iodide staining-based flow cytometric analysis; type: functional
[23] = tested on: MCF7; assay: Cell cycle arrest in human MCF7 cells assessed as accumulation of cells at subG1 phase at 50 to 100 uM after 24 hrs by propidium iodide staining-based flow cytometric analysis; type: functional

| Ki [2] [nM] | SMILES | Activity [3] | Activity [4] | Activity [5] | Activity [6] | Activity [7] | Activity [8] | Activity [9] | Activity [10] | Activity [11] | also measured |
| --- | --- | --- | --- | --- | --- | --- | --- | --- | --- | --- | --- |
| 317 | CCCCC1=N/C(=C\c2ccccc2Br)C(=O)N1Cc1ccc(-c2ccccc2-c2nnn(C(c3ccccc3)(c3ccccc3)c3ccccc3)n2)cc1 | Non-Toxic | Non-Toxic | Non-Toxic | Non-Toxic | Non-Toxic | Non-Toxic | Toxic | Active | – | inhibition [1]: Dose-dependent effect |
| – | CCCCC1=N/C(=C\c2ccc(Cl)cc2)C(=O)N1Cc1ccc(-c2ccccc2-c2nnn(C(c3ccccc3)(c3ccccc3)c3ccccc3)n2)cc1 | Non-Toxic | Non-Toxic | Non-Toxic | Non-Toxic | Non-Toxic | Non-Toxic | – | – | – | – |
| 24800 | CCCCC1=N/C(=C\c2ccc(Br)cc2)C(=O)N1Cc1ccc(-c2ccccc2C#N)cc1 | Non-Toxic | Non-Toxic | Non-Toxic | Non-Toxic | Non-Toxic | Non-Toxic | Toxic | Active | Active | Activity [12]: Dose-dependent effect; Activity [13]: Dose-dependent effect; Activity [14]: Dose-dependent effect; Activity [15]: Dose-dependent effect; Activity [16]: 90%; Activity [17]: >70%; Activity [18]: Toxic; Activity [19]: Toxic; Activity [20]: Toxic; Activity [21]: Active; Activity [22]: Active; Activity [23]: Active |
| – | CCCCC1=N/C(=C\c2cccc(Br)c2)C(=O)N1Cc1ccc(-c2ccccc2-c2nnn(C(c3ccccc3)(c3ccccc3)c3ccccc3)n2)cc1 | Non-Toxic | Non-Toxic | Non-Toxic | Non-Toxic | Non-Toxic | Non-Toxic | – | Active | Active | – |
| – | CCCCC(=O)N(Cc1ccc(-c2ccccc2-c2nnn[nH]2)cc1)[C@H](C(=O)O)C(C)C | Non-Toxic | – | Non-Toxic | Non-Toxic | – | – | Toxic | Active | Active | – |
| – | CCCCC1=N/C(=C\c2ccc(Br)cc2)C(=O)N1Cc1ccc(-c2ccccc2-c2nnn(C(c3ccccc3)(c3ccccc3)c3ccccc3)n2)cc1 | Non-Toxic | Non-Toxic | Non-Toxic | Non-Toxic | Non-Toxic | Non-Toxic | – | – | Active | – |
| 10.4 | CCOc1nc2cccc(C(=O)O)c2n1Cc1ccc(-c2ccccc2-c2nnn[nH]2)cc1 | – | – | – | – | – | – | – | – | – | – |
| – | CCCCC1=N/C(=C\c2cccc(Cl)c2)C(=O)N1Cc1ccc(-c2ccccc2-c2nnn(C(c3ccccc3)(c3ccccc3)c3ccccc3)n2)cc1 | Non-Toxic | Non-Toxic | Non-Toxic | Non-Toxic | Non-Toxic | Non-Toxic | – | Active | – | – |
